Data taken from patent US8513232B2, “Substituted spirocyclic piperidine derivatives as histamine-3 (H3) receptor ligands” (Cephalon, Inc., priority 2008, dated 2013).
Where two headings read alike, the source gives them in different places.

Columns and labels:
[1] = target: T1, rat histamine H3 receptor (Rattus norvegicus, UniProt Q9QYN8); assay: Rat H3 radioligand binding ([3H]-N-alpha-methylhistamine, SPA)
T1 construct: encoding the entire 445-amino-acid rat histamine H3 receptor; expressed in transfected cells; membrane preparation
From the text: Cell line development and membrane preparation. The rat H3 receptor cDNA was PCR amplified from reverse-transcribed RNA pooled from rat thalamus, hypothalamus, striatum and prefrontal cortex with a sequence corresponding to by #338-1672 of Genbank file #NM_053506, encoding the entire 445-amino-acid rat histamine H3 receptor. This was engineered into the pIRES-neo3 mammalian expression vector, which was stably transfected into the CHO-A3 cell line (Euroscreen, Belgium), followed by clonal selection by limiting dilution. Cells were harvested and cell pellets were frozen (−80° C.). Cell pellets were resuspended in 5 mM Tris-HCl, pH 7.5 with […] and a cocktail of protease inhibitors (Complete Protease Inhibitior Tablets, Roche Diagnostics). Cells were disrupted using a polytron cell homogenizer and the suspension was centrifuged at 1000×g for 10 minutes at 4° C. The pellet was discarded and the supernatant centrifuged at 40,000×g for 30 min at 4° C. This membrane pellet was washed in membrane buffer containing 50 mM Tris-HCl, pH 7.5 with 0.6 mM EDTA, 5 mM MgCl2 and protease inhibitors, recentrifuged as above and the final pellet resuspended in membrane buffer plus 250 mM sucrose and frozen at −80° C.
(§1) Radioligand Binding. Membranes were resuspended in 50 mM Tris HCl (pH 7.4), 5 mM MgCl2, 0.1% BSA. The membrane suspensions (10 μg protein per well) were incubated in a 96 well microtiter plate with [^3H]-N-alpha-methylhistamine (approximately 1 nM final concentration), test compounds at various concentrations (0.01 nM-30 μM) and scintillation proximity beads (Perkin Elmer, FlashBlueGPCR Scintillating Beads) in a final volume of 80 μl for 4 hours at room temperature, protected from light. Non-specific binding was determined in the presence of 10 μM clobenpropit. Radioligand bound to receptor, and therefore in proximity to the scintillation beads, was measured using a MicroBeta scintillation counter.

human H3 receptor = target: T2, human H3 receptor (Homo sapiens, UniProt Q9Y5N1); assay: Human H3 radioligand binding ([3H]-N-alpha-methylhistamine, SPA)
T2 construct: expressed in transfected cells
Experimental: Methods: CHO cells stably expressing the human H3 receptor (GenBank: NM_007232) were harvested and cell pellets were frozen (−80° C.). Cell pellets were resuspended in 5 mM Tris-HCl, pH 7.5 with […] and a cocktail of protease inhibitors (Complete Protease Inhibitior Tablets, Roche Diagnostics). Cells were disrupted using a polytron cell homogenizer and the suspension was centrifuged at 1000×g for 10 minutes at 4° C. The pellet was discarded and the supernatant centrifuged at 40,000×g for 30 min at 4° C. This membrane pellet was washed in membrane buffer containing 50 mM Tris-HCl, pH 7.5 with 0.6 mM EDTA, 5 mM MgCl2 and protease inhibitors, recentrifuged as above and the final pellet resuspended in membrane buffer plus 250 mM sucrose and frozen at −80° C.
as §1

[2] = Table A, rat H3 binding, read-out: Rat Ki
[3] = Table A, human H3 binding, read-out: Human Ki
[4] = Table C, rat H3 binding, read-out: Rat H3 Ki
[5] = Table C, human H3 binding, read-out: Human H3 Ki
[6] = Rat H3 binding, Table B, Examples 136-362, read-out: rat H3 binding Ki
[7] = Human H3 binding, Table B, Examples 136-362, read-out: hum H3 binding Ki

T1 sequence (Q9QYN8 whole entry): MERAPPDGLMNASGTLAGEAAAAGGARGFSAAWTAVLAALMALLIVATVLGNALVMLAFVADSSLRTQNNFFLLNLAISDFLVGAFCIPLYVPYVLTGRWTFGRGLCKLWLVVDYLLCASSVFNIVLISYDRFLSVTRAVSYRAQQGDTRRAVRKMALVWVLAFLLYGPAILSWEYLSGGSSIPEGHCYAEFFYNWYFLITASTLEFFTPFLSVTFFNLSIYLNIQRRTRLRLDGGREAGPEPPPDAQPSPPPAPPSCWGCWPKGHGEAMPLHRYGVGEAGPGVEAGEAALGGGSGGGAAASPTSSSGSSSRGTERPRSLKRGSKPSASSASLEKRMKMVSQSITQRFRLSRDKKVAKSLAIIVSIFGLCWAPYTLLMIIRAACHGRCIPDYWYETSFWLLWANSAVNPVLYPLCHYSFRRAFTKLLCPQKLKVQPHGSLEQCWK
T2 sequence (Q9Y5N1 whole entry): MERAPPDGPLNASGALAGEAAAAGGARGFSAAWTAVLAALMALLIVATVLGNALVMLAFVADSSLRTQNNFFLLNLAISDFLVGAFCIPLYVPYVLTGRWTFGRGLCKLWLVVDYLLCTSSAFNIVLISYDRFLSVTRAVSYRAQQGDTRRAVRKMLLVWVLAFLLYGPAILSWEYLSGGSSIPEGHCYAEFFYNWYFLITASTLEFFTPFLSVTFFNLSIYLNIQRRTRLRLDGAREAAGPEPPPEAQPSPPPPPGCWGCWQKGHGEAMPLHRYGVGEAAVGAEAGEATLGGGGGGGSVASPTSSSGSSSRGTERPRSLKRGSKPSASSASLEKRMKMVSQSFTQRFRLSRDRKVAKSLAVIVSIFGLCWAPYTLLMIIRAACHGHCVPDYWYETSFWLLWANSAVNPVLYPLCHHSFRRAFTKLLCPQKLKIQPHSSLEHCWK

Compound	Ki [1, 2] [nM]	Ki (human H3 receptor; [3]) [nM]	also measured
c1csc(Cc2ccc3c(c2)COC2(CCN(C4CCC4)CC2)O3)n1 [Example 696]			Ki ([1]; rat H3 binding, Table D, read-out: Rat H3 Ki): < 200 nM; Ki (human H3 receptor; human H3 binding, Table D, read-out: Human H3 Ki): < 200 nM
N#Cc1ccc(-c2ccc3c(c2)COC2(CCN(C4CCC4)CC2)O3)cc1 [Example 3]	< 200	< 200	
O=C(NC1CC1)c1cccc(-c2ccc3c(c2)COC2(CCN(C4CCC4)CC2)O3)c1 [Example 55]	< 200	< 200	
c1cc2c(cc1-c1ccc3c(c1)COC1(CCN(C4CCC4)CC1)O3)CCO2 [Example 2]	< 200	< 200	
N#Cc1cccc(-c2ccc3c(c2)OC2(CCN(C4CCC4)CC2)O3)c1 [Example 92]	> 1000	200 to 1000	
Cn1cc(-c2ccc3c(c2)CCC2(CCN(C4CCC4)CC2)O3)cn1 [Example 111]	< 200	< 200	
c1cn2c(n1)CN(c1ccc3c(c1)CCC1(CCN(C4CCC4)CC1)O3)CC2 [Example 428]			Ki [1, 4]: < 200 nM; Ki (human H3 receptor; [5]): < 200 nM
c1cnc(-c2ccc3c(c2)CCC2(CCN(C4CCC4)CC2)O3)cn1 [Example 145]			Ki [1, 6]: < 200 nM; Ki (human H3 receptor; [7]): < 200 nM
O=C(c1cccc(-c2ccc3c(c2)OC2(CCN(C4CCC4)CC2)O3)c1)N1CCOCC1 [Example 91]	< 200	< 200	
NC(=O)c1ccc(N2CCN(c3ccc4c(c3)CCC3(CCN(C5CCC5)CC3)O4)CC2)nc1 [Example 379]			Ki [1, 4]: < 200 nM; Ki (human H3 receptor; [5]): < 200 nM
COc1ncc(-c2ccc3c(c2)CCC2(CCN(C4CCC4)CC2)O3)cn1 [Example 104]	< 200	< 200	
c1ccc(-c2ccc3c(c2)CCC2(CCN(C4CCC4)CC2)O3)cc1 [Example 102]	< 200	< 200	
CN(C)C(=O)c1ccc(N2CCN(c3ccc4c(c3)CCC3(CCN(C5CCC5)CC3)O4)CC2)nc1 [Example 410]			Ki [1, 4]: < 200 nM; Ki (human H3 receptor; [5]): < 200 nM
CC(C)Cn1cc(-c2ccc3c(c2)COC2(CCN(C4CCC4)CC2)O3)ccc1=O [Example 562]			Ki ([1]; read-out: Rat H3 kI): < 200 nM; Ki (human H3 receptor; read-out: Human H3 Ki): < 200 nM
Cc1cc(-c2ccc3c(c2)CCC2(CCN(C4CCC4)CC2)O3)ccc1C(=O)O [Example 327]			Ki [1, 6]: 200 to 1000 nM; Ki (human H3 receptor; [7]): < 200 nM
O=S(=O)(c1ccc(-c2ccc3c(c2)COC2(CCN(C4CCC4)CC2)O3)cc1)N1CCCC1 [Example 16]	< 200	< 200	
Fc1ccc(-c2ccc3c(c2)COC2(CCN(C4CCC4)CC2)O3)cn1 [Example 1]	< 200	< 200	
NC(=O)c1c(F)cc(-c2ccc3c(c2)CCC2(CCN(C4CCC4)CC2)O3)cc1F [Example 340]			Ki [1, 6]: < 200 nM; Ki (human H3 receptor; [7]): < 200 nM
c1cc2c(cc1OC[C@H]1CCCO1)CCC1(CCN(C3CCC3)CC1)O2 [Example 464]			Ki ([1]; read-out: Rat H3 kI): < 200 nM; Ki (human H3 receptor; read-out: Human H3 Ki): < 200 nM
O=S(=O)(c1ccc(-c2ccc3c(c2)COC2(CCN(C4CCC4)CC2)O3)cc1)N1CCOCC1 [Example 17]	< 200	< 200	
O=C(NC1CC1)c1ccc(-c2ccc3c(c2)COC2(CCN(C4CCC4)CC2)O3)cc1 [Example 14]	< 200	< 200	
Cc1nc(C)c(-c2ccc3c(c2)COC2(CCN(C4CCC4)CC2)O3)s1 [Example 70]	< 200	< 200	
O=S(=O)(c1ccc(-c2ccc3c(c2)COC2(CCN(C4CCC4)CC2)O3)cc1)N1CCC1 [Example 24]	< 200	< 200	
c1cc2c(cc1OC1CCNCC1)CCC1(CCN(C3CCC3)CC1)O2 [Example 425]			Ki [1, 4]: < 200 nM; Ki (human H3 receptor; [5]): < 200 nM
c1cc2c(cc1OCC1CCCO1)CCC1(CCN(C3CCC3)CC1)O2 (centres unmarked) [Example 449]			Ki ([1]; read-out: Rat H3 kI): < 200 nM; Ki (human H3 receptor; read-out: Human H3 Ki): < 200 nM
O=C(c1ccc(-c2ccc3c(c2)COC2(CCN(C4CCC4)CC2)O3)cc1)N1CCCC1 [Example 8]	< 200	< 200	
c1cc2c(cc1OC1CCSCC1)CCC1(CCN(C3CCC3)CC1)O2 [Example 457]			Ki ([1]; read-out: Rat H3 kI): < 200 nM; Ki (human H3 receptor; read-out: Human H3 Ki): < 200 nM
c1cc2c(cc1-c1ccc3nonc3c1)CCC1(CCN(C3CCC3)CC1)O2 [Example 112]	< 200	< 200	
